The results in this text go back to ChEMBL document CHEMBL4651402, “Screening of ~5500 FDA-approved drugs and clinical candidates for anti-SARS-CoV-2 activity” (2021).

In data set [1] the test system is SARS-CoV-2. The data set is described as follows: microbe, parasite or virus in culture. Particulars: Severe acute respiratory syndrome coronavirus 2, Vero C1008, 48 h. It counts as functional, organism-based, Chlorocebus sabaeus, Vero C1008.
The test system of data set [2] is SARS-CoV-2. The data set is described as follows: microbe, parasite or virus in culture. Particulars: Severe acute respiratory syndrome coronavirus 2, Vero C1008, 48 h.
A short description of data set [3]: in vitro. Particulars: chlorocebus sabaeus, Vero E6 (Vero C1008) cells.

The CC50 is the concentration giving 50% cytotoxicity. A higher CC50 goes with lower toxicity to the cells. Take `CC(C)(C)NC(=O)[C@@H]1C[C@@H]2CCCC[C@@H]2CN1C[C@@H](O)[C@H](Cc1ccccc1)NC(=O)[C@H](CC(N)=O)NC(=O)c1ccc2ccccc2n1`: the IC50 in data set [1] (read-out: IC50), in data set [1] (read-out: pIC50 (converted)), in data set [2] and in data set [2] (read-out: pIC50 (converted)) was above 100 µM in each case. In addition, the CC50 at 48 h in data set [3] (CC50) and in data set [3] (pCC50) was 18.2 µM throughout.

For `COc1cc2c3cc1Oc1cc(ccc1O)C[C@@H]1c4c(cc(OC)c(O)c4Oc4ccc(cc4)C[C@H]3N(C)CC2)CCN1C`, the IC50 in data set [1] (read-out: IC50) is around 5.37 µM; in data set [1] (read-out: pIC50 (converted)) it was around 5.37 µM; in data set [2] it was above 10 µM; in data set [2] (read-out: pIC50 (converted)), above 10 µM. Further, the CC50 at 48 h in data set [3] (CC50) and in data set [3] (pCC50) was 11.5 µM in each case.

As for `COc1ccc2nc3c(c(N)c2c1)CCCC3`, the IC50 in data set [1] (read-out: IC50) was above 25.1 µM; in data set [1] (read-out: pIC50 (converted)) it was above 25.1 µM; in data set [2], around 11.5 µM; in data set [2] (read-out: pIC50 (converted)), around 11.5 µM. For the same compound, the CC50 at 48 h in data set [3] (CC50) and in data set [3] (pCC50) was 47.9 µM throughout.

For `CNCCC=C1c2ccccc2C=Cc2ccccc21`, the IC50 in data set [1] (read-out: IC50), in data set [1] (read-out: pIC50 (converted)), in data set [2] and in data set [2] (read-out: pIC50 (converted)) was above 50.1 µM throughout. For the same compound, the CC50 at 48 h in data set [3] (CC50) and in data set [3] (pCC50) was 23.4 µM in each case.

`C[C@H](Oc1cc(-c2cnn(C3CCNCC3)c2)cnc1N)c1c(Cl)ccc(F)c1Cl`: the IC50 in data set [1] (read-out: IC50) was around 4.47 µM; in data set [1] (read-out: pIC50 (converted)), around 4.47 µM; in data set [2], 6.76 µM; in data set [2] (read-out: pIC50 (converted)) it was 6.76 µM. The half-maximal cytotoxic concentration (CC50) at 48 h in data set [3] (CC50) is 4.42 µM; in data set [3] (pCC50), 4.37 µM.

As for `c1ccc(C(O[C@H]2CCCN(CCc3ccc4c(c3)OCO4)C2)c2ccccc2)cc1`, the IC50 in data set [1] (read-out: IC50) was 87.1 µM; in data set [1] (read-out: pIC50 (converted)), 87.1 µM; in data set [2], above 100 µM; in data set [2] (read-out: pIC50 (converted)), above 100 µM. For the same compound, the CC50 at 48 h in data set [3] (CC50) and in data set [3] (pCC50) was above 100 µM in each case.

On to `CN1C2CCC1CC(OC(c1ccccc1)c1ccc(Cl)cc1)C2` (stereo not drawn), for which the IC50 was above 100 µM in data set [1] (read-out: IC50), above 100 µM in data set [1] (read-out: pIC50 (converted)), 9.77 µM in data set [2] and 9.77 µM in data set [2] (read-out: pIC50 (converted)). Also, the CC50 at 48 h in data set [3] (CC50) and in data set [3] (pCC50) was 8.13 µM throughout.

As for `COc1ccc([C@@H](Cc2ccncc2)c2ccccc2)cc1OC1CCCC1`, the IC50 in data set [1] (read-out: IC50), in data set [1] (read-out: pIC50 (converted)), in data set [2] and in data set [2] (read-out: pIC50 (converted)) was above 100 µM throughout. Further, the CC50 at 48 h in data set [3] (CC50) and in data set [3] (pCC50) was 23.4 µM throughout.

For the compound `CN1CCC(c2cc3cc(Cl)ccc3o2)CC1`, the IC50 in data set [1] (read-out: IC50) is above 100 µM; in data set [1] (read-out: pIC50 (converted)), above 100 µM; in data set [2], 17.2 µM; in data set [2] (read-out: pIC50 (converted)), 17 µM. Besides, the CC50 at 48 h in data set [3] (CC50) and in data set [3] (pCC50) was 34.7 µM throughout.

As for `CCN(CC)CCCNc1cc(OC)cc2cccnc12`, the IC50 in data set [1] (read-out: IC50) was above 100 µM; in data set [1] (read-out: pIC50 (converted)) it was above 100 µM; in data set [2] it was 24.6 µM; in data set [2] (read-out: pIC50 (converted)), 24.5 µM. Besides, the CC50 at 48 h in data set [3] (CC50) and in data set [3] (pCC50) was above 100 µM throughout.

Turning to `CCOC(=O)Oc1c(OC)cc(C(=O)OC2CC3CN4CCc5c([nH]c6cc(OC)ccc56)C4CC3C(C(=O)OC)C2OC)cc1OC` (stereo not drawn), the IC50 in data set [1] (read-out: IC50), in data set [1] (read-out: pIC50 (converted)), in data set [2] and in data set [2] (read-out: pIC50 (converted)) was above 100 µM in each case. Moreover, the CC50 at 48 h in data set [3] (CC50) and in data set [3] (pCC50) was 8.91 µM each time.

`CN(C)CC/C=C1\c2ccccc2OCc2c1oc1ccccc21`: the IC50 was above 100 µM in data set [1] (read-out: IC50), above 100 µM in data set [1] (read-out: pIC50 (converted)), 18.2 µM in data set [2] and 18.2 µM in data set [2] (read-out: pIC50 (converted)). Further, the values for the CC50 at 48 h in data set [3] (CC50) and in data set [3] (pCC50) were 12.2 µM and 12 µM, respectively.

For the compound `C#C[C@]1(O)CCC2C3CCc4cc(OC5CCCC5)ccc4C3CCC21C` (stereo partly drawn), the IC50 was above 100 µM in data set [1] (read-out: IC50), above 100 µM in data set [1] (read-out: pIC50 (converted)), 8.71 µM in data set [2] and 8.71 µM in data set [2] (read-out: pIC50 (converted)). For the same compound, the CC50 at 48 h in data set [3] (CC50) and in data set [3] (pCC50) was 7.59 µM in each case.
